Measured values: patent US7795495B2, “Transgenic mice for screening for inhibitors of protein aggregation and methods for making and using them” (The Regents of the University of California, priority 2000, dated 2010)

Key:
[1] = tested on: GT1-7 murine hypothalamic neuronal cells; assay: GT1-7 cells overexpressing α-synuclein: mitochondrial alterations and oxidative stress; assay type: cell-based
Procedure: To determine if the overexpression of α-synuclein causes dysregulated neuronal function, GT1-7 cells were transfected with the mammalian expression vector pCR3.1 (Invitrogen) using standard transfection protocols well known in the art. The cells were transfected with or without insertion of murine α-synuclein cDNA. The resulting expression of α-synuclein was measured at both mRNA and protein levels using RPA and immunoblotting analysis. Clones which either overexpressed or underexpressed α-synuclein (via transfection with an anti-sense plasmid) were selected and analyzed. […] These alterations were ameliorated by pretreatment with the anti-oxidant, vitamin E. Furthermore, α-synuclein overexpression in GT1-7 cells results in the formation of α-synuclein—immunopositive inclusion-like structures.

B103 cells = B103 cells overexpressing synuclein: cell adhesion and neurite extension; assay type: cell-based; settings: catalase 100 µg/ml, superoxide dismutase 100 U/ml, vitamin E 500 µM
[2] = Aggregation of synuclein proteins under high temperature conditions (SDS-PAGE/Coomassie brilliant blue); assay type: physicochemical; settings: 20 µM protein, pH 6.9, 65 °C, 0, 8 and 20 hours
Procedure: Each of the protein samples (20 µM) was incubated under pH 6.9, 65° C. conditions for 0, 8, and 20 hours. The incubated samples were run over SDS-PAGE and the resulting protein bands visualized by Coomassie/brilliant blue staining (FIG. 2).

B103 neuroblastoma cells = assay: Aβ cytotoxicity in B103 neuroblastoma cells; assay type: cell-based; settings: for effect on Aβ cytotoxicity / cell survival: Aβ 20 µM, serum-free, three days, protein 20 µM
Procedure: When B103 neuroblastoma cells were incubated with Aβ (20 µM) under serum-free conditions for three days, dead cells become prominent due to the cytotoxic effects of Aβ.

α-synuclein tg mice = assay: Bigenic crosses: β-synuclein overexpression in α-synuclein tg mice (rotorod, neuropathological analysis); assay type: in vivo
Source text: Motor deficits in Lewy body disease are associated with degeneration of the nigral dopaminergic neurons projecting to the striatum. To determine if loss of dopaminergic input to the striatum in transgenic mice is associated with Parkinson's disease related neurological impairments, mice were examined with a rotorod test, a behavioral testing mechanism well known to those familiar with such procedures. […] The dopaminergic and behavioral deficits were detected only in the high expression line and not in low-expression lines. […] This may lead to the conclusion that a critical threshold of α-synuclein accumulation is required for dopaminergic and behavioral deficits to become detectable. None-the-less, the evaluation of such neurophysiological characteristics, as previously described, are well known to those of skill in such evaluations. As such, it is apparent that the increased expression of wild-type α-synuclein plays a key role in the pathogenesis of neurodegenerative conditions associated with amyloidogenesis.

[3] = biological target: SDS-resistant complexes of α-synuclein and Aβ1-40 (Homo sapiens, UniProt P37840); assay: Formation of SDS-resistant complexes of α-synuclein and Aβ1-40, immunoblotting analysis; assay type: biochemical; settings: 10 µM α-synuclein, 10 µM Aβ1-40, 100 µM peptide
Source text: Those in the art generally agree that β-Synuclein blocks Aβ proto-fibril formation by one of two possible mechanistic pathways. In the first pathway, inhibition is facilitated through indirectly blocking NAC or α-synuclein interaction with Aβ. In the second possible pathway, inhibition is facilitated by the direct blocking Aβ aggregation.

Substance: vitamin E
- effect of pretreatment on alterations caused by α-synuclein overexpression (mitochondrial alterations, free radicals, glutathione, gonadotropin-releasing hormone secretion) [1]: ameliorated
- effect of anti-oxidants on altered adhesion and neurite outgrowth of synuclein overexpressing cells (B103 cells): little effect

Substance: β-synuclein .delta.2: β-synuclein mutant with amino acids 63-72 of NAC N-terminal inserted by site-directed mutagenesis
- formation of aggregates / amyloid-like fibrils under high temperature conditions [2]: aggregated to form amyloid-like fibrils

Substance: β-synuclein .delta.1: β-synuclein mutant with amino acids 72-83 of NAC inserted by site-directed mutagenesis
- formation of aggregates / amyloid-like fibrils under high temperature conditions [2]: aggregated to form amyloid-like fibrils

Substance: β-synuclein
- formation of aggregates / amyloid-like fibrils under high temperature conditions [2]: fails to show any formation of aggregates
- effect on Aβ cytotoxicity / cell survival (B103 neuroblastoma cells): blocked the effects of this cytotoxicity
- effect on Aβ toxicity in neuroblastoma cell (summary statement) (B103 neuroblastoma cells): protective
- motor deficits, rotorod performance (α-synuclein tg mice; β-synuclein overexpression in α-synuclein tg mice (bigenic crosses), FIG. 14): reduced the motor deficits
- neuronal loss (α-synuclein tg mice; β-synuclein overexpression in α-synuclein tg mice, FIG. 16): reduction neuronal loss
- neuronal inclusions (α-synuclein tg mice; β-synuclein overexpression in α-synuclein tg mice, neuropathological analysis, FIG. 15): reduction of neuronal inclusions

Substance: catalase
- effect of anti-oxidants on altered adhesion and neurite outgrowth of synuclein overexpressing cells (B103 cells): little effect

Substance: superoxide dismutase
- effect of anti-oxidants on altered adhesion and neurite outgrowth of synuclein overexpressing cells (B103 cells): little effect

Substance: α-synuclein [reference compound]
- formation of aggregates / amyloid-like fibrils under high temperature conditions [2]: positive aggregation
- effect on Aβ cytotoxicity / cell survival (B103 neuroblastoma cells): detrimental to cell survival
- effect on Aβ toxicity in neuroblastoma cell (summary statement) (B103 neuroblastoma cells): enhances Aβ toxicity

Substance: 51-60 (Seq ID #11): synthetic peptide, amino acids 51-61 of β-synuclein: Gly Val Ala Ser Val Ala Glu Lys Thr Lys Glu (GVASVAEKTKE; listed as Homo sapiens)
- suppression of the formation of SDS-resistant complexes of α-synuclein and Aβ1-40 [3]: significant suppression
- suppression of the formation of SDS-resistant complexes of α-synuclein and Aβ1-40 ([3]; listed as a.a. 51-61 of β-synuclein): suppression
